# Measured values reported in the supplement of paper PMC4862054.
# Legend:
# Conditions in all cases: 72 h
# CAL-148 [1] = test system: CAL-148
# In short: (§1)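 Breast cancer cell lines (20 µl suspension) were seeded into 384-well plates holding compound at 5 concentrations in 10-fold steps over a compound-specific 10,000-fold range, then incubated 72 h. Cell death was read first by CellTox Green fluorescence (485/520 nm), then viability by CellTiter-Glo luminescence after 10 min at room temperature. Each plate was normalised to 0.1 % DMSO and a positive kill control. EC50 was fitted from the dose-response curves and censored at the top concentration.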
# HCC1143 [2] = test system: HCC1143
# In short: as §1
# MCF-10A [3] = test system: MCF-10A
# In short: as §1
# HDQ-P1 [4] = test system: HDQ-P1
# In short: (§2)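 Each 384-well plate was pre-loaded with compound dissolved in 5 µl medium, received breast cancer cells in 20 µl suspension, and was incubated 72 h. A 2.5 µl addition of CellTiter-Blue for 2 h at 37 °C was followed by a fluorescence read at 560/590 nm. Data were normalised per plate to vehicle and a positive kill control and checked by Z'-factor. EC50 was fitted from the percent-inhibition dose-response curve, censored at the highest concentration, excluding rows with a drug sensitivity score of zero.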
# BT-474 = test system: BT-474
# In short: as §2
# BT-549 = test system: BT-549
# In short: as §2
# CAL-120 [5] = test system: CAL-120
# In short: as §2
# HCC1143 [6] = test system: HCC1143; remark: listed apart in the source
# In short: as §2
# HCC1599 [7] = test system: HCC1599
# In short: as §2
# HCC1937 [8] = test system: HCC1937
# In short: as §2
# Hs578T = test system: Hs578T
# In short: as §2
# MDA-MB-231 [9] = test system: MDA-MB-231
# In short: as §2
# MDA-MB-436 [10] = test system: MDA-MB-436
# In short: as §2
# MDA-MB-468 = test system: MDA-MB-468
# In short: as §2
# MFM-223 [11] = test system: MFM-223
# In short: as §2
# SK-BR-3 = test system: SK-BR-3
# In short: as §2
# CAL-120 [12] = test system: CAL-120; remark: listed apart in the source
# Description: (§3)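 Drug sensitivity and resistance testing (DSRT) of breast cancer cell lines in 384-well plates, 5 concentrations in 10-fold dilutions over a compound-specific 10,000-fold range. After 72 h, cytotoxicity was read by CellTox Green fluorescence and viability by CellTiter-Glo luminescence (multiplexed), normalised to DMSO and benzethonium chloride controls. EC50 is the inflection point of the fitted dose-response curve (bottom asymptote free, so it can be relative for partial curves) and is censored at the highest tested concentration. Rows with DSS 0 (no meaningful response) were excluded.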
# MCF-10A [13] = test system: MCF-10A; remark: listed apart in the source
# Description: as §3
# MDA-MB-231 [14] = test system: MDA-MB-231; remark: listed apart in the source
# Description: as §3
# MDA-MB-436 [15] = test system: MDA-MB-436; remark: listed apart in the source
# Description: as §3
# MFM-223 [16] = test system: MFM-223; remark: listed apart in the source
# Description: as §3
# HDQ-P1 [17] = test system: HDQ-P1; remark: listed apart in the source
# Description: as §3
# CAL-148 [18] = test system: CAL-148; remark: listed apart in the source
# Description: as §3
# HCC1599 [19] = test system: HCC1599; remark: listed apart in the source
# Description: as §3
# HCC1937 [20] = test system: HCC1937; remark: listed apart in the source
# Description: as §3
# MDA-MB-453 = test system: MDA-MB-453
# Description: as §3
# DU-4475 = test system: DU-4475
# Description: as §3
SMILES,"EC50, CellTiter-Glo (HCC1143 [2]) [nM]","EC50, CellTiter-Blue viability (BT-474) [nM]","EC50, CellTiter-Blue viability (BT-549) [nM]","EC50, CellTiter-Blue viability (HCC1143 [6]) [nM]","EC50, CellTiter-Blue viability (HCC1599 [7]) [nM]","EC50, CellTiter-Blue viability (HCC1937 [8]) [nM]","EC50, CellTiter-Blue viability (MDA-MB-231 [9]) [nM]","EC50, CellTiter-Blue viability (MDA-MB-436 [10]) [nM]","EC50, CellTiter-Blue viability (MDA-MB-468) [nM]","EC50, CellTiter-Blue viability (SK-BR-3) [nM]","EC50, CellTiter-Glo (CAL-148 [1]) [µM]","EC50, CellTiter-Glo (MCF-10A [3]) [nM]","EC50, CellTiter-Blue viability (HDQ-P1 [4]) [nM]","EC50, CellTiter-Blue viability (CAL-120 [5]) [nM]","EC50, CellTiter-Blue viability (Hs578T) [nM]","EC50, CellTiter-Blue viability (MFM-223 [11]) [nM]","EC50, CellTox Green (CAL-120 [12]) [µM]","EC50, CellTox Green (MCF-10A [13]) [µM]","EC50, CellTox Green (MDA-MB-231 [14]) [nM]","EC50, CellTox Green (MDA-MB-436 [15]) [nM]","EC50, CellTox Green (MFM-223 [16]) [µM]","EC50, CellTox Green (HDQ-P1 [17]) [µM]","EC50, CellTox Green (CAL-148 [18]) [nM]","EC50, CellTox Green (HCC1599 [19]) [µM]","EC50, CellTox Green (HCC1937 [20]) [µM]","EC50, CellTox Green (MDA-MB-453) [µM]","EC50, CellTox Green (DU-4475) [µM]"
CN[C@@H](C)C(=O)N[C@H]1CN(C(=O)CC(C)C)CC[C@H]2CC[C@@H](C(=O)NC(c3ccccc3)c3ccccc3)N2C1=O [AT-406],–,–,–,–,–,–,–,–,–,–,–,–,–,–,–,–,–,–,81.2,–,–,5.14,–,–,–,–,–
COc1cc(Nc2c(C#N)cnc3cc(OCCCN4CCN(C)CC4)c(OC)cc23)c(Cl)cc1Cl [Bosutinib],1440,3120,3360,1440,2100,2670,2410,3110,3180,2130,7.59,442,2550,1960,4520,5250,–,2.08,2030,6620,–,5.94,2050,> 10,5.4,7.28,–
CCN(CC)CCCC(C)Nc1ccnc2cc(Cl)ccc12 (configuration not stated) [Chloroquine],43200,–,–,–,–,–,–,–,–,–,12.4,17300,–,–,–,–,38.4,20.4,10400,5410,15.3,34.6,5120,17.9,23.9,13.4,96.8
CC1(COc2ccc3c(c2)ncn3-c2ccc3cccc(N4CCC(N)CC4)c3n2)COC1 [Crenolanib],–,–,–,–,–,–,–,–,–,–,4.35,4780,–,–,–,–,–,3.37,2710,29.3,–,1.04,2530,–,–,–,> 10
CC(C)(C)c1nc(-c2cccc(NS(=O)(=O)c3c(F)cccc3F)c2F)c(-c2ccnc(N)n2)s1 [Dabrafenib],–,–,–,–,–,–,–,–,–,–,–,–,–,–,–,–,–,–,–,–,–,–,–,–,–,–,0.224
Cn1cc(C2=C(c3cn(C4CCN(Cc5ccccn5)CC4)c4ccccc34)C(=O)NC2=O)c2ccccc21 [Enzastaurin],–,1670,857,418,–,5370,–,129,–,667,–,–,1000,–,873,642,–,–,–,–,–,–,–,–,–,–,–
Nc1ccn([C@@H]2O[C@H](CO)[C@@H](O)C2(F)F)c(=O)n1 [Gemcitabine],9.33,–,19.1,9.03,233,20.5,4.41,22.2,13.5,11.8,0.0128,39.9,–,9.03,9.36,673,–,–,–,–,–,–,9.69,–,–,–,–
CC(=O)[C@]1(O)Cc2c(O)c3c(c(O)c2[C@@H](O[C@H]2C[C@H](N)[C@H](O)[C@H](C)O2)C1)C(=O)c1ccccc1C3=O [Idarubicin],531,116,91.5,91.5,945,5.47,79.6,96.8,53,24.5,0.125,455,277,42.2,93.8,263,–,0.642,–,–,0.806,–,31.9,–,–,–,–
C/C(=C\c1csc(C)n1)[C@@H]1C[C@@H]2O[C@]2(C)CCC[C@H](C)[C@H](O)[C@@H](C)C(=O)C(C)(C)[C@@H](O)CC(=O)N1 [Ixabepilone],–,672,510,371,–,371,84.3,173,834,274,–,–,–,333,625,322,–,–,–,–,–,–,–,–,–,–,–

# More lines, main results first:
"EC50, CellTiter-Glo (HCC1143 [2]) [nM]","EC50, CellTiter-Blue viability (BT-474) [nM]","EC50, CellTiter-Blue viability (BT-549) [nM]","EC50, CellTiter-Blue viability (HCC1143 [6]) [nM]","EC50, CellTiter-Blue viability (HCC1599 [7]) [nM]","EC50, CellTiter-Blue viability (HCC1937 [8]) [nM]","EC50, CellTiter-Blue viability (MDA-MB-231 [9]) [nM]","EC50, CellTiter-Blue viability (MDA-MB-436 [10]) [nM]","EC50, CellTiter-Blue viability (MDA-MB-468) [nM]","EC50, CellTiter-Blue viability (SK-BR-3) [nM]",SMILES,"EC50, CellTiter-Glo (CAL-148 [1]) [µM]","EC50, CellTiter-Glo (MCF-10A [3]) [nM]","EC50, CellTiter-Blue viability (HDQ-P1 [4]) [nM]","EC50, CellTiter-Blue viability (CAL-120 [5]) [nM]","EC50, CellTiter-Blue viability (Hs578T) [nM]","EC50, CellTiter-Blue viability (MFM-223 [11]) [nM]","EC50, CellTox Green (CAL-120 [12]) [µM]","EC50, CellTox Green (MCF-10A [13]) [µM]","EC50, CellTox Green (MDA-MB-231 [14]) [nM]","EC50, CellTox Green (MDA-MB-436 [15]) [nM]","EC50, CellTox Green (MFM-223 [16]) [µM]","EC50, CellTox Green (HDQ-P1 [17]) [µM]","EC50, CellTox Green (CAL-148 [18]) [nM]","EC50, CellTox Green (HCC1599 [19]) [µM]","EC50, CellTox Green (HCC1937 [20]) [µM]","EC50, CellTox Green (MDA-MB-453) [µM]","EC50, CellTox Green (DU-4475) [µM]"
644,552,2470,1780,1590,349,376,776,748,156,COc1ccc(S(=O)(=O)Nc2cccnc2Nc2ccc(O)cc2)cc1 [ABT-751],6.97,5770,245,295,218,2130,> 10,6.83,497,116,5.43,–,–,–,–,–,–
–,–,–,–,213,–,–,–,–,–,Cc1cc(Nc2nc(N[C@@H](C)c3ncc(F)cn3)ncc2Cl)[nH]n1 [AZD1480],–,–,–,–,–,64.8,–,–,–,–,0.872,–,–,–,–,–,–
